From PubChem BioAssay (NCI)
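Cells were grown in 96-well plates and exposed to each compound for 48 hours at five concentrations; endpoints were interpolated linearly between bracketing concentrations, or set to the highest concentration if not reached. Definition used: TGI = concentration required for complete inhibition of growth.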

Key:
Experiment in all cases: NCI anticancer screen, dose series, 48 h
SF-268 CNS = test system: SF-268 CNS
PC-3 prostate = test system: PC-3 prostate
M14 melanoma = test system: M14 melanoma
NCI/ADR-RES ovarian = test system: NCI/ADR-RES ovarian
MOLT-4 leukemia = test system: MOLT-4 leukemia
CAKI-1 renal = test system: CAKI-1 renal
MDA-MB-231 breast = test system: MDA-MB-231 breast
SF-539 CNS = test system: SF-539 CNS
786-0 renal = test system: 786-0 renal
MALME-3M melanoma = test system: MALME-3M melanoma

Structure (SMILES)	TGI (SF-268 CNS) [µM]	TGI (PC-3 prostate) [µM]	TGI (M14 melanoma) [µM]	TGI (NCI/ADR-RES ovarian) [µM]	TGI (MOLT-4 leukemia) [µM]	TGI (CAKI-1 renal) [µM]	TGI (MDA-MB-231 breast) [µM]	TGI (SF-539 CNS) [µM]	TGI (786-0 renal) [µM]	TGI (MALME-3M melanoma) [µM]
CC(NC(=O)Cc1ccc(OP(=O)(OCc2ccc([N+](=O)[O-])o2)N(C)CCCCCl)cc1)c1ccc(OCC2CCCCC2)c(C(N)=O)c1 (stereo not given)	6.27	19.6	4.64	94.3	4.38	20.7	4.37	4.09	10.8	4.42
Cn1c(N/N=C/c2ccccc2)nc(-c2ccc3c(c2)OCO3)c(C#N)c1=O	> 100	> 100	> 100	> 100	> 100	> 100	> 100	> 100	> 100	> 100
CC(C)C[S+]1C2=C([O-])CC(C)(C)CC2=Nc2ccccc21 (stereo not given)	> 100	> 100	> 100	> 100	> 100	> 100	> 100	> 100	> 100	> 100
CC(=O)N1C(C(=O)NN2CCOCC2)CSC1c1ccccc1 (stereo not given)	> 100	> 100	> 100	> 100	> 100	> 100	> 100	> 100	> 100	> 100
COC(CNC(=O)CNC(=O)c1ccc(C(F)(F)F)cc1)OC	> 100	> 100	> 100	> 100	> 100	> 100	> 100	> 100	> 100	> 100
CN(C)CCCNC(=O)N/N=C/c1ccc(O)cc1	> 100	> 100	> 100	> 100	> 100	> 100	> 100	> 100	> 100	> 100
CC[C@H](C)[C@H](NC(=O)N(CCC#N)CCN(CCN(C(=O)N[C@@H](Cc1ccccc1)C(=O)OC)c1ccccc1)C(=O)N[C@H](C(=O)OC)C(C)C)C(=O)OC	44.4	47.7	44.8	81.7	24.7	35.3	47.1	49.1	17.1	35
O=C1CC(c2ccc(Cl)cc2)C2(C(=O)NC(=S)NC2=O)C(c2ccc(Cl)cc2)C1 (stereo not given)	31.9	55.1	44.7	52	89.5	74.6	46.8	40.9	> 100	52.1
C/C=C/CC(C(=O)OCC)(N(C)C(=O)OC(C)(C)C)S(=O)(=O)c1ccc(C)cc1 (stereo not given)	> 100	> 100	> 100	> 100	> 100	> 100	> 100	> 100	> 100	> 100
Nc1nc(Cl)cc(NCC2(CO)CCCCC2)n1	> 100	> 100	> 100	> 100	> 100	> 100	> 100	> 100	> 100	> 100
Cc1ccc(Nc2c3c(c(C#N)c4nc5ccccc5n24)CCCC3)cc1	> 100	87.2	74.4	61.9	40.6	> 100	62.4	43.4	> 100	77.9
CCO/C(O)=C(/C(=N)N1CCOCC1)C(=O)Nc1cccc(C(F)(F)F)c1	> 100	> 100	> 100	> 100	> 100	> 100	> 100	> 100	> 100	> 100
